Measured values reported in ChEMBL document CHEMBL3044907, “Sensitivity of Fusarium verticillioides isolates from rice to a novel cyanoacrylate fungicide” (Crop Prot, 2012).
In brackets after ≈: the same amount, converted by molar mass.

What was measured:
[1] = test system: Fusarium verticillioides; assay: (§1) Fungicidal activity against Fusarium verticilliodes isolate JS09 in rice seeds harvested from bakane diseased plants assessed as number of seedlings abnormally elongated or exhibiting symptoms of damping-off at 12.5 ug/ml at 30 degC incubated for 72 hr measured after 3 days under greenhouse trials (reference value: 32.6%); type: functional
[2] = test system: Fusarium verticillioides; assay: as §1, with “YZ01” for “JS09”, “6.25” for “12.5”, “33.6%)” for “32.6%)”; type: functional
[3] = test system: Fusarium verticillioides; assay: as §1, with “8.33” for “12.5”; type: functional
[4] = test system: Fusarium verticillioides; assay: as §1, with “JS02” for “JS09”, “25” for “12.5”, “24.9%)” for “32.6%)”; type: functional
[5] = test system: Fusarium verticillioides; assay: as §1, with “N03” for “JS09”, “25” for “12.5”, “36.1%)” for “32.6%)”; type: functional
[6] = test system: Fusarium verticillioides; assay: as §1, with “N01” for “JS09”, “25” for “12.5”, “27.4%)” for “32.6%)”; type: functional
[7] = test system: Fusarium verticillioides; assay: as §1, with “YZ22” for “JS09”, “25” for “12.5”, “22.5%)” for “32.6%)”; type: functional
[8] = test system: Fusarium verticillioides; assay: as §1, with “YZ11” for “JS09”, “25” for “12.5”, “33.7%)” for “32.6%)”; type: functional
[9] = test system: Fusarium verticillioides; assay: as §1, with “YZ10” for “JS09”, “25” for “12.5”, “49.2%)” for “32.6%)”; type: functional
[10] = test system: Fusarium verticillioides; assay: as §1, with “YZ06” for “JS09”, “25” for “12.5”, “45.3%)” for “32.6%)”; type: functional
[11] = test system: Fusarium verticillioides; assay: as §1, with “YZ03” for “JS09”, “25” for “12.5”, “21.3%)” for “32.6%)”; type: functional
[12] = test system: Fusarium verticillioides; assay: Fungicidal activity against Fusarium verticilliodes in rice seeds harvested from bakane diseased plants assessed as mycelial growth inhibition at 25 degC after 3 to 5 days; type: functional, organism-based
[13] = test system: Fusarium verticillioides; assay: as §1, with “JS07” for “JS09”, “6.25” for “12.5”, “33.8%)” for “32.6%)”; type: functional
[14] = test system: Fusarium verticillioides; assay: as §1, with “N03” for “JS09”, “6.25” for “12.5”, “36.1%)” for “32.6%)”; type: functional
[15] = test system: Fusarium verticillioides; assay: as §1, with “YZ26” for “JS09”, “6.25” for “12.5”, “49.3%)” for “32.6%)”; type: functional
[16] = test system: Fusarium verticillioides; assay: as §1, with “YZ12” for “JS09”, “6.25” for “12.5”, “45.8%)” for “32.6%)”; type: functional
[17] = test system: Fusarium verticillioides; assay: as §1, with “YZ09” for “JS09”, “6.25” for “12.5”, “17.5%)” for “32.6%)”; type: functional
[18] = test system: Fusarium verticillioides; assay: as §1, with “YZ06” for “JS09”, “6.25” for “12.5”, “45.3%)” for “32.6%)”; type: functional
[19] = test system: Fusarium verticillioides; assay: as §1, with “YZ04” for “JS09”, “6.25” for “12.5”, “44.2%)” for “32.6%)”; type: functional
[20] = test system: Fusarium verticillioides; assay: as §1, with “YZ08” for “JS09”, “25” for “12.5”, “19.8%)” for “32.6%)”; type: functional
[21] = test system: Fusarium verticillioides; assay: as §1, with “JS08” for “JS09”, “13.0%)” for “32.6%)”; type: functional
[22] = test system: Fusarium verticillioides; assay: as §1, with “JS02” for “JS09”, “24.9%)” for “32.6%)”; type: functional
[23] = test system: Fusarium verticillioides; assay: as §1, with “N06” for “JS09”, “9.6%)” for “32.6%)”; type: functional
[24] = test system: Fusarium verticillioides; assay: as §1, with “JS07” for “JS09”, “8.33” for “12.5”, “33.8%)” for “32.6%)”; type: functional
[25] = test system: Fusarium verticillioides; assay: as §1, with “N05” for “JS09”, “8.33” for “12.5”, “6.2%)” for “32.6%)”; type: functional
[26] = test system: Fusarium verticillioides; assay: as §1, with “N02” for “JS09”, “8.33” for “12.5”, “41.2%)” for “32.6%)”; type: functional
[27] = test system: Fusarium verticillioides; assay: as §1, with “N01” for “JS09”, “8.33” for “12.5”, “27.4%)” for “32.6%)”; type: functional
[28] = test system: Fusarium verticillioides; assay: as §1, with “YZ26” for “JS09”, “8.33” for “12.5”, “49.3%)” for “32.6%)”; type: functional
[29] = test system: Fusarium verticillioides; assay: as §1, with “YZ13” for “JS09”, “8.33” for “12.5”, “26.8%)” for “32.6%)”; type: functional
[30] = test system: Fusarium verticillioides; assay: as §1, with “YZ06” for “JS09”, “45.3%)” for “32.6%)”; type: functional
[31] = test system: Fusarium verticillioides; assay: as §1, with “YZ05” for “JS09”, “33.3%)” for “32.6%)”; type: functional
[32] = test system: Fusarium verticillioides; assay: as §1, with “YZ04” for “JS09”, “44.2%)” for “32.6%)”; type: functional
[33] = test system: Fusarium verticillioides; assay: as §1, with “YZ03” for “JS09”, “21.3%)” for “32.6%)”; type: functional
[34] = test system: Oryza sativa; assay: Effect on germination of healthy Oryza sativa (rice) seed cultivar Liangyou 6326 at 6.25 to 25 ug/ml at 25 degC after 72 hr; type: ADME, organism-based; conditions: in vivo
[35] = test system: Fusarium verticillioides; assay: as §1, with “YZ10” for “JS09”, “8.33” for “12.5”, “49.2%)” for “32.6%)”; type: functional
[36] = test system: Fusarium verticillioides; assay: as §1, with “JS03” for “JS09”, “6.25” for “12.5”, “15.8%)” for “32.6%)”; type: functional
[37] = test system: Fusarium verticillioides; assay: as §1, with “N06” for “JS09”, “6.25” for “12.5”, “9.6%)” for “32.6%)”; type: functional

In the case of `CCOC(=O)/C(C#N)=C(/N)c1ccccc1`, the Activity [1] is reported as 0%, the Activity [2] is reported as 3.7% and the Activity [3] is reported as 1.2%. For the same molecule, the Activity [4] was 0%, the Activity [5] was 0% and the Activity [6] was 0%. The Activity [7] was 0%, the Activity [8] was 0% and the Activity [9] was 0%. For the same molecule, the Activity [10] was 0%, the Activity [11] was 0% and the EC50 [12] was 0.379 µg/mL (≈ 1.75 µM). The Activity [13] was 1.3%, the Activity [14] was 0.5% and the Activity [15] was 4.1%. It also gave an Activity [16] of 3.2%, an Activity [17] of 2.8% and an Activity [18] of 1%. For the same molecule, the Activity [19] was 1.3%, the Activity [20] was 0% and the Activity [21] was 0%. It also gave an Activity [22] of 0%, an Activity [23] of 0% and an Activity [24] of 0%. For the same molecule, the Activity [25] was 0%, the Activity [26] was 0% and the Activity [27] was 0%. For the same molecule, the Activity [28] was 1.2%, the Activity [29] was 0% and the Activity [30] was 0%. It also gave an Activity [31] of 0%, an Activity [32] of 0% and an Activity [33] of 0%. For the same molecule, the Activity [34] was “Non-toxic”, the Activity [35] was 0% and the Activity [36] was 1.4%. The Activity [37] was 0.8%.
